Test results as given in PMC6298744 (Biochemical pharmacology, 2018).
Counter-ions that a name gives are not always drawn. Like-named read-outs stand apart in the source and are kept apart here.

What was measured:
human 5-HT1A receptor [1] = target: T1, human 5-HT1A receptor (Homo sapiens, UniProt P08908); assay: 5-HT1A receptor [^3H]8-OH-DPAT radioligand binding
T1 sequence (P08908 1-422): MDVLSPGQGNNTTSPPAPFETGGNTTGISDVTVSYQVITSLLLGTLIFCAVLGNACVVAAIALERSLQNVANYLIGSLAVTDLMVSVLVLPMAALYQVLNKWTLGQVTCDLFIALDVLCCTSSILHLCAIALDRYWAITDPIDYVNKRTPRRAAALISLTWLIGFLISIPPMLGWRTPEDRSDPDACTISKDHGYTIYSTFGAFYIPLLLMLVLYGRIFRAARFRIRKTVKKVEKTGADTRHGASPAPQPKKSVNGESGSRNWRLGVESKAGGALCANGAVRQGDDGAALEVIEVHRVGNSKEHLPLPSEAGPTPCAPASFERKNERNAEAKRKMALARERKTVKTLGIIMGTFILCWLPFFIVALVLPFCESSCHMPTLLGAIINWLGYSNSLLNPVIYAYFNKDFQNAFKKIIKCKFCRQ

5-HT2A receptor [2] = target: T2, 5-HT2A receptor (Homo sapiens, UniProt P28223); assay: biochemical; type: binding; conditions: for Selectivity (binding ratios) 5-HT2A : 5-HT1A / Selectivity (binding ratios) 5-HT2A : 5-HT2B / Selectivity (binding ratios) 5-HT2A : 5-HT2C: ratio of Ki values
human 5-HT1A receptor [3] = target: T1, human 5-HT1A receptor; assay: 5-HT1A receptor [^35S]GTPγS binding stimulation; type: biochemical; conditions: for Emax: read-out: % maximum stimulation, 5-HT1A stimulation of [^35S]GTPγS binding
5-HT2A receptor [4] = target: T2, 5-HT2A receptor; assay: cell-based; type: cell-based; conditions: for Selectivity (functional ratios) 5-HT2A: 5-HT1A / Selectivity (functional ratios) 5-HT2A: 5-HT2B / Selectivity (functional ratios) 5-HT2A: 5-HT2C: ratio of EC50 values; for Emax: read-out: % maximum stimulation, 5-HT2A stimulation of IP-1 formation
5-HT2B receptor [5] = target: T3, 5-HT2B receptor (Homo sapiens, UniProt P41595); assay: 5-HT2B receptor inositol monophosphate; type: cell-based; conditions: for Emax: read-out: % maximum stimulation, 5-HT2B stimulation of IP-1 formation
hDAT [6] = target: T4, hDAT (Homo sapiens, UniProt Q01959); assay: Inhibition of [^125I]RTI-55 binding to hDAT
hSERT [7] = target: T5, hSERT (Homo sapiens, UniProt P31645); assay: Inhibition of [^125I]RTI-55 binding to hSERT
hNET [8] = target: T6, hNET (Homo sapiens, UniProt P23975); assay: biochemical; type: binding
hDAT [9] = target: T4, hDAT; assay: Release of preloaded [^3H]DA from HEK-hDAT cells; type: cell-based; conditions: for % maximum release, hDAT [^3H]DA: relative to maximum release induced by METH (1–10 μM)
hSERT [10] = target: T5, hSERT; assay: Release of preloaded [^3H]5-HT from HEK-hSERT cells; type: cell-based; conditions: for % maximum release, hSERT [^3H]5-HT: relative to maximum release induced by METH (0.3–1 mM)
hNET [11] = target: T6, hNET; assay: Release of preloaded [^3H]NE from HEK-hNET cells; type: cell-based; conditions: for % maximum release, hNET [^3H]NE: relative to maximum release induced by METH (0.3–1 μM)
hDAT [12] = target: T4, hDAT; assay: Inhibition of [^3H]DA uptake by HEK-hDAT cells; type: cell-based
hNET [13] = target: T6, hNET; assay: cell-based
[14] = taken hours after ingestion; cited from earlier work
5-HT2C receptor = target: T7, 5-HT2C receptor (Homo sapiens, UniProt P28335); assay: cell-based; conditions: for Emax: read-out: % maximum stimulation, 5-HT2C stimulation of IP-1 formation
T7 sequence (P28335 33-458): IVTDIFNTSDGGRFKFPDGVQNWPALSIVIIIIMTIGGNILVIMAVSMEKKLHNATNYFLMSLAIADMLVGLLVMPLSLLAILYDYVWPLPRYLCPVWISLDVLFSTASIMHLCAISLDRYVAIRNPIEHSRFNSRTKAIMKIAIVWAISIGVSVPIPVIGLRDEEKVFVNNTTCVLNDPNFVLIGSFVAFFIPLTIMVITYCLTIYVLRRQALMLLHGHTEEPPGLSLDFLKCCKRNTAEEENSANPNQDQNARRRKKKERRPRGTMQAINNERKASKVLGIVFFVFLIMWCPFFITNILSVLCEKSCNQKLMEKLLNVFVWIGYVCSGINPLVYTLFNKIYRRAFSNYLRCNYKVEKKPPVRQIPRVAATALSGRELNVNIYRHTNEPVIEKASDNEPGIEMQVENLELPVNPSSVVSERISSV

hSERT [15] = target: T5, hSERT; assay: Inhibition of [^3H]5-HT uptake by HEK-hSERT cells; type: cell-based
5-HT2B receptor [16] = target: T3, 5-HT2B receptor; assay: 5-HT2B receptor [^3H]5-HT binding
[17] = normalized to the maximal stimulation by 5-HT
[18] = EC50, 5-HT2A stimulation of IP-1 formation, mean ± sem

T2 sequence (P28223 whole entry): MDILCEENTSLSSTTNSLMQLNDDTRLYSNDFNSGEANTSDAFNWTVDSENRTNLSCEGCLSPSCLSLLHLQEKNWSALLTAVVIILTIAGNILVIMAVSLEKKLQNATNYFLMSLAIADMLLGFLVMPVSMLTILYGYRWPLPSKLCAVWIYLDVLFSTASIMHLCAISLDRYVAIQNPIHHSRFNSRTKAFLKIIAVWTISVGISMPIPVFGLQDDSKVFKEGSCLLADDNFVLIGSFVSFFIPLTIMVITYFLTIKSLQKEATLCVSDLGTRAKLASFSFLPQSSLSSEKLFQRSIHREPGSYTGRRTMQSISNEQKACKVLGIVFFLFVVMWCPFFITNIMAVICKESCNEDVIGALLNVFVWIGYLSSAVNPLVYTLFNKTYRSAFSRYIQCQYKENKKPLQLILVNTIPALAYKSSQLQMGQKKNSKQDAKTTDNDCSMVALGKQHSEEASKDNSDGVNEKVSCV
T5 sequence (P31645 whole entry): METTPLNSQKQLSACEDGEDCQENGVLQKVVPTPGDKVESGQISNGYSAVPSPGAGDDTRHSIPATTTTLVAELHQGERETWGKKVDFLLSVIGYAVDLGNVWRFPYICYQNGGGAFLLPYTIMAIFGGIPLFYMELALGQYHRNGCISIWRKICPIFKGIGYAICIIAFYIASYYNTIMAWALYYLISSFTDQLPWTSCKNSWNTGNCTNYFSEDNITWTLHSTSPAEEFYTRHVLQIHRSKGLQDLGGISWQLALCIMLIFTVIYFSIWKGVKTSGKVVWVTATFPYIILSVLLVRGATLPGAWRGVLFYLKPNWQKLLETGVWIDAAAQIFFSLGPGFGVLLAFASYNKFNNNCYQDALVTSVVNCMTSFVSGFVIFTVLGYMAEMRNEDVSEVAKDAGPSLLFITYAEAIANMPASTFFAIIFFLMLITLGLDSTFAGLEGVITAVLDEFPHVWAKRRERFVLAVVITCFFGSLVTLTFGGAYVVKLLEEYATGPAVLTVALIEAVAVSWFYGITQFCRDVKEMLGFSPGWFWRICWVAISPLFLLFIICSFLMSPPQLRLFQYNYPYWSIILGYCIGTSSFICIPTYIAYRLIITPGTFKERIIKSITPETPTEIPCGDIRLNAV
T4 sequence (Q01959 whole entry): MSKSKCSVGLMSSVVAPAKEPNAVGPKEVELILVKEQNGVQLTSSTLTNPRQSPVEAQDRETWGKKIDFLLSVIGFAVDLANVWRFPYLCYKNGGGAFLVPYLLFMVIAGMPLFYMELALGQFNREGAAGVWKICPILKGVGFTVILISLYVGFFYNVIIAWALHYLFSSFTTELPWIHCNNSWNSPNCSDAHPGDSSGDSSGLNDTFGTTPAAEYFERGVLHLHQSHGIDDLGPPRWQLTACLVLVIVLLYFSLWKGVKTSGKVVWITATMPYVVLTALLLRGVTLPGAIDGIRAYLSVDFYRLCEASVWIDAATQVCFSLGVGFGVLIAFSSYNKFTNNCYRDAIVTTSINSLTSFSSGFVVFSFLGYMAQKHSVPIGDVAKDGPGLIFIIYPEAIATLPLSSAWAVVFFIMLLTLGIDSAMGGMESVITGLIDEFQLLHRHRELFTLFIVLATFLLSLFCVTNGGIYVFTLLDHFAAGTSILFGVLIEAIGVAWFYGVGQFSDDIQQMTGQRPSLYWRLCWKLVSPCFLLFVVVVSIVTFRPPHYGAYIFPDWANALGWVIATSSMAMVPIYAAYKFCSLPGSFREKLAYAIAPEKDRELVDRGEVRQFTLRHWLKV
T6 sequence (P23975 whole entry): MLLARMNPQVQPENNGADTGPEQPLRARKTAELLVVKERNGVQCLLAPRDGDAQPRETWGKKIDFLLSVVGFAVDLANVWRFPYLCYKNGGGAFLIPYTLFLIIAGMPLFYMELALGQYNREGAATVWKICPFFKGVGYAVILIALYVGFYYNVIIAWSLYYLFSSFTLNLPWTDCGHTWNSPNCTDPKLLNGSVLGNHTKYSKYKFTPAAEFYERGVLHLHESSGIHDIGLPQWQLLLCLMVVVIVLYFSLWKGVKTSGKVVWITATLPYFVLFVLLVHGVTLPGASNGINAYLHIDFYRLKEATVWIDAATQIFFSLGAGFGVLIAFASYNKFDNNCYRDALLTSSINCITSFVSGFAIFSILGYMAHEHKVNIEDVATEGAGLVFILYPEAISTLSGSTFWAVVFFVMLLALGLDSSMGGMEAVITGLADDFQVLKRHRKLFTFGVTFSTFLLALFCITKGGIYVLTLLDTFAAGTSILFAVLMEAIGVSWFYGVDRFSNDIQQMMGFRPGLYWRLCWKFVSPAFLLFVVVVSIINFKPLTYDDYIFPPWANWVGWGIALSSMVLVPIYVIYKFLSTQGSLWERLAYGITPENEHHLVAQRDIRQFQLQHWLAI
T3 sequence (P41595 whole entry): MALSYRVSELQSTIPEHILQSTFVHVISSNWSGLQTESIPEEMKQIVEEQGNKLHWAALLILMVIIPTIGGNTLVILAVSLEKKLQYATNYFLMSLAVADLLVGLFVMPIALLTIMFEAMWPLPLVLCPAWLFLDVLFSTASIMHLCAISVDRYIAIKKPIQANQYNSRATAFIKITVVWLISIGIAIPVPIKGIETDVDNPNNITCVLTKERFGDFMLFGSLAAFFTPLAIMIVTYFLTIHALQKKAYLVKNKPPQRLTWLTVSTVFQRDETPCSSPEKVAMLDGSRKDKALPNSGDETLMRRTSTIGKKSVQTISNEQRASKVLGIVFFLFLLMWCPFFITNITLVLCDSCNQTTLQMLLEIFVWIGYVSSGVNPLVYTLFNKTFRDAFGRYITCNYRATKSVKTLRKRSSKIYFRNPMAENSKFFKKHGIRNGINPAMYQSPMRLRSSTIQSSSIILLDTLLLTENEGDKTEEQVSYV

| Compound | % maximum release, hDAT [^3H]DA (hDAT [9]) [%] | % maximum release, hSERT [^3H]5-HT (hSERT [10]) [%] | % maximum release, hNET [^3H]NE (hNET [11]) [%] | Ki (hDAT [6]) [µM] | Ki (hNET [8]) [µM] | IC50 (hDAT [12]) [µM] | IC50 (hNET [13]) [µM] | Ki (human 5-HT1A receptor [1]) [µM] | Ki (5-HT2A receptor [2]) [µM] | Selectivity (binding ratios) 5-HT2A : 5-HT1A (5-HT2A receptor [2]) | Selectivity (binding ratios) 5-HT2A : 5-HT2B (5-HT2A receptor [2]) | Selectivity (binding ratios) 5-HT2A : 5-HT2C (5-HT2A receptor [2]) | EC50 (human 5-HT1A receptor [3]) [µM] | Emax (human 5-HT1A receptor [3]) [%] | EC50 (5-HT2A receptor [4]; [18]) [µM] | Selectivity (functional ratios) 5-HT2A: 5-HT1A (5-HT2A receptor [4]) | Selectivity (functional ratios) 5-HT2A: 5-HT2B (5-HT2A receptor [4]) | Selectivity (functional ratios) 5-HT2A: 5-HT2C (5-HT2A receptor [4]) | Emax (5-HT2A receptor [4]) [%] | EC50 (5-HT2B receptor [5]) [µM] | further results |
| --- | --- | --- | --- | --- | --- | --- | --- | --- | --- | --- | --- | --- | --- | --- | --- | --- | --- | --- | --- | --- | --- |
| COc1cc(CC(C)N)c(OC)cc1C (single isomer, unassigned; (-)) [DOM, (-)2,5-dimethoxy-4-methylamphetamine, reference compound] | −0.20 ± 0.16 | 2.9 ± 3.4 | 25.5 ± 2.0 |  |  |  |  |  |  |  |  |  |  |  |  |  |  |  |  |  | Ki (human 5-HT1A receptor [1]; read-out: Inhibition of radioligand binding Ki, 5-HT1A [^3H]8OH-DPAT, mean ± sem, recombinant human 5-HT1A in HEK cells, agonist radioligand): 3.66 ± 0.47 µM; Ki (5-HT2A receptor [2]; read-out: Inhibition of radioligand binding Ki, 5-HT2A [^125I]DOI): 0.0183 µM; % maximum stimulation, 5-HT1A stimulation of [^35S]GTPγS binding (human 5-HT1A receptor [3]; [17]): 74 ± 25%; EC50 (human 5-HT1A receptor [3]; read-out: EC50, 5-HT1A stimulation of [^35S]GTPγS binding, mean ± sem): 12.8 ± 4.7 µM; % maximum stimulation, 5-HT2A stimulation of IP-1 formation (5-HT2A receptor [4]): 39.9 ± 5.4 (3) 94.6 ± 4.1%; EC50 (5-HT2A receptor [4]; read-out: EC50, 5-HT2A stimulation of IP-1 formation): 0.0399 µM; % maximum stimulation, 5-HT2B stimulation of IP-1 formation (5-HT2B receptor [5]; [17]): 96.2 ± 3.2%; EC50 (5-HT2B receptor [5]; read-out: EC50, 5-HT2B stimulation of IP-1 formation, mean ± sem): 0.145 ± 0.047 µM; Ki (hDAT [6]; read-out: Inhibition of [^125I]RTI-55 binding Ki, hDAT, mean ± sem, HEK-hDAT): > 100 µM; Ki (hSERT [7]; read-out: Inhibition of [^125I]RTI-55 binding Ki, hSERT, mean ± sem, HEK-hSERT): > 100 µM; Ki (hNET [8]; read-out: Inhibition of [^125I]RTI-55 binding Ki, hNET, mean ± sem, HEK-hNET): > 100 µM; EC50 (hDAT [9]; read-out: Drug-induced release of [^3H]neurotransmitter EC50, hDAT [^3H]DA, mean ± sem, HEK-hDAT): > 100 µM; EC50 (hSERT [10]; read-out: Drug-induced release of [^3H]neurotransmitter EC50, hSERT [^3H]5-HT, mean ± sem, HEK-hSERT): > 100 µM; EC50 (hNET [11]; read-out: Drug-induced release of [^3H]neurotransmitter EC50, hNET [^3H]NE, mean ± sem, HEK-hNET): > 42 µM |
| NCCc1c[nH]c2ccc(O)cc12 [5-HT, Serotonin hydrochloride, reference compound] |  |  |  | 375 ± 83 | 392 ± 10 | 3.36 ± 0.32 | 7.2 ± 2.5 |  |  |  |  |  |  |  |  |  |  |  |  |  |  |
| COc1cc(CCNCc2ccccc2OC)c(OC)cc1Cl [25C-NBOMe] |  |  |  |  |  |  |  |  |  |  |  |  |  |  |  |  |  |  |  |  | Human blood concentration [14]: 2.80 ng/mL |
| COc1cc(CCNCc2ccccc2OC)c(OC)cc1C [25D-NBOMe, 2-(2,5-dimethoxy-4-methylphenyl)-N-(2-methoxybenzyl)ethanamine] | 0.75 ± 0.48 | 0.59 ± 0.24 | 14.3 ± 8.5 | 34.5 ± 4.2 | 6.7 ± 1.3 | > 85 | 1.17 ± 0.14 | 4.51 ± 0.73 | 0.00022 ± 2.6e-05 | 20500 | 9.3 | 3.1 | 5.9 ± 1.9 | 55 | 0.00153 ± 0.0001 | 3900 | 21 | 0.90 | 95.1 | 0.0323 ± 0.0068 | Emax (5-HT2B receptor [5]): 47.7%; EC50 (5-HT2C receptor): 0.00137 ± 0.00036 µM; Emax (5-HT2C receptor): 96.1%; Ki (hSERT [7]): 1.78 ± 0.28 µM; IC50 (hSERT [15]): 1.02 ± 0.078 µM; EC50 (hDAT [9]): > 100 µM; EC50 (hSERT [10]): > 100 µM; EC50 (hNET [11]): > 33 µM; Ki (5-HT2B receptor [16]): 0.00205 ± 0.00049 µM |
| CCc1cc(OC)c(CCNCc2ccccc2OC)cc1OC [25E-NBOMe, 2-(4-ethyl-2,5-dimethoxyphenyl)-N-(2-methoxybenzyl)ethanamine] | 5.8 ± 6.4 | 0.21 ± 0.77 | 17.1 ± 5.9 | 19.6 ± 1.2 | 5.4 ± 1 | 34 ± 10 | 2.31 ± 0.7 | 1.68 ± 0.35 | 0.000127 ± 1.9e-05 | 13200 | 8.7 | 2.4 | 13.7 ± 5.6 | 38 | 0.0005 ± 0.00014 | 27,000 | 47 | 1.9 | 87.1 | 0.0235 ± 0.006 | Emax (5-HT2B receptor [5]): 49.4%; EC50 (5-HT2C receptor): 0.00095 ± 0.00018 µM; Emax (5-HT2C receptor): 91.8%; Ki (hSERT [7]): 1.59 ± 0.12 µM; IC50 (hSERT [15]): 1.44 ± 0.14 µM; EC50 (hDAT [9]): > 85 µM; EC50 (hSERT [10]): > 100 µM; EC50 (hNET [11]): > 66 µM; Ki (5-HT2B receptor [16]): 0.00111 ± 0.00032 µM |
